According to patent publication US20220054532A1, “VETERINARY COMPOSITIONS AND METHODS OF USE THEREFOR” (priority 2019, published 2022):

Legend:
Assay type in all cases: in vivo
[1] = tested on: cats suffering from GI-specific inflammation; assay: Example 3: GI-specific inflammation, owner-rated symptom reduction (feline); settings: symptom reduction score 0 (no reduction) to 4 (resolution of symptoms); for Final Score: after 28 days BID
From the text: (§1) This example examines the ability of embodiments of the invention versus Pepcid® to treat unwanted GI-specific inflammation characterized by gastritis, reflux, vomiting, diarrhea, and inappetence.
(§2) The first patient group is twenty dogs suffering from GI-specific inflammation. The second patient group is twenty cats suffering from GI-specific inflammation. Each patient group is broken into five groups of four animals. The first groups receive Pepcid® as the sole active agent; the second groups receive a composition comprising HMW HA as the sole active agent; the third groups receive a composition comprising CBD as the sole active agent; the fourth groups receive a composition comprising HMW HA and CBD as the active agents; and the fifth groups receive a composition comprising HMW HA, CBD, and glutathione as the active agents.
(§3) Each composition is administered for a period of twenty-eight (28) days, BID. The owner observes potential reduction of symptoms at the end of treatment and rates the reduction as no reduction (score of 0), mild reduction (score of 1), moderate reduction (score of 2), significant reduction (score of 3), or resolution of symptoms (score of 4).
The following feline scores are observed and the results depicted in FIG. 3b: […]

[2] = tested on: cats suffering from joint inflammation; assay: Example 4: joint inflammation, thermal imaging (feline); settings: over the inflamed joint, 60 days BID
From the text: (§4) This example examines the ability of embodiments of the invention versus Cosequin® to treat joint inflammation.
The first patient group is twenty dogs suffering from joint inflammation. The second patient group is twenty cats suffering from joint inflammation. The third patient group is twenty horses suffering from joint inflammation. Each patient group is broken into five groups of four animals. The first groups receive Cosequin® as the sole active agent; the second groups receive a composition comprising HMW HA as the sole active agent; the third groups receive a composition comprising CBD as the sole active agent; the fourth groups receive a composition comprising HMW HA and CBD as the active agents; and the fifth groups receive a composition comprising HMW HA, CBD, Boswellia, and superoxide dismutase (“SOD”) as the active agents.
(§5) Each composition is administered for a period of sixty (60) days, BID. Efficacy is determined by a decrease in body temperature over the inflamed joint, as measured by thermal imaging (e.g., via Digatherm device). Thermal imaging is performed on days 0 (“Initial Score”), 15, 30, 45, and 60 (“Final Score”) of treatment.
The following feline scores are observed and the results depicted in FIG. 4b: […]

[3] = tested on: dogs suffering from seizures; assay: Example 6: seizures in dogs; settings: seizure scale 1 (seizure-free) to 10 (daily or multiple seizures); for Initial Score: day 0; for Final Score: day 60, BID
From the text: This example examines the ability of embodiments of the invention versus phenobarbital to treat seizures.
The patient group is twenty-four dogs suffering from seizures as diagnosed by their referring veterinarian. The patient group is broken into six groups of four animals. The first group receives phenobarbital as the sole active agent; the second group receives a composition comprising phenobarbital and Keppra®; the third group receives a composition comprising HMW HA as the sole active agent; the fourth group receives a composition comprising CBD as the sole active agent; the fifth group receives a composition comprising HMW HA and CBD as the active agents; and the sixth group receives a composition comprising HMW HA, CBD, valerian root, and scutillaria as the active agents.
Each composition is administered for a period of sixty (60) days, BID. Each dog is evaluated on days 0 (“Initial Score”), 15, 30, 45, and 60 (“Final Score”) of treatment. The results are averaged and characterized on a scale of 1 (seizure-free) to 10 (daily seizures or multiple seizures during the event).
The following canine scores are observed and the results depicted in FIG. 6: […]

[4] = tested on: dogs suffering from GI-specific inflammation; assay: Example 11: GI-specific inflammation, owner-rated symptom reduction (canine, CBD Complex); settings: canine (FIG. 11a), symptom reduction score 0 (no reduction) to 4 (resolution of symptoms); for Final Score: after 28 days BID
From the text: as §1
as §2, with “and CBD Complex as the” for “and CBD as the”, “HMW HA, CBD Complex, and glutathione” for “HMW HA, CBD, and glutathione”
as §3

[5] = tested on: cats suffering from GI-specific inflammation; assay: Example 11: GI-specific inflammation, owner-rated symptom reduction; settings: species not given, symptom reduction score 0 to 4; for Final Score: after 28 days BID
From the text: as §1
as §2, with “and CBD Complex as the” for “and CBD as the”, “HMW HA, CBD Complex, and glutathione” for “HMW HA, CBD, and glutathione”
as §3

[6] = tested on: dogs suffering from joint inflammation; assay: Example 12: joint inflammation, thermal imaging (canine, CBD Complex); settings: over the inflamed joint, 60 days BID
From the text: as §4
(§6) The first patient group is twenty dogs suffering from joint inflammation. The second patient group is twenty cats suffering from joint inflammation. The third patient group is twenty horses suffering from joint inflammation. Each patient group is broken into five groups of four animals. The first groups receive Cosequin® as the sole active agent; the second groups receive a composition comprising HMW HA as the sole active agent; the third groups receive a composition comprising CBD as the sole active agent; the fourth groups receive a composition comprising HMW HA and CBD Complex as the active agents; and the fifth groups receive a composition comprising HMW HA, CBD Complex, Boswellia, and superoxide dismutase (“SOD”) as the active agents.
as §5
The following canine scores are observed and the results depicted in FIG. 12a: […]

[7] = tested on: cats suffering from joint inflammation; assay: Example 12: joint inflammation, thermal imaging (feline, CBD Complex); settings: over the inflamed joint, 60 days BID
From the text: as §4, §6, §5
The following feline scores are observed and the results depicted in FIG. 12b: […]

[8] = tested on: dogs suffering behavior aberrations and/or anxiety; assay: Example 13: behavior aberrations and anxiety, C-BARQ (canine, CBD Complex); settings: C-BARQ day 0 vs 60, SID, 0 (no improvement) to 3 (marked improvement)
From the text: This example examines the ability of embodiments of the invention versus Clomicalm® to reduce behavior aberrations and anxiety.
The first patient group is twenty dogs suffering behavior aberrations and/or anxiety, as determined by the canine behavioral assessment and research questionnaire (“C-BARQ”). […] The second patient group is twenty cats suffering behavior aberrations and/or anxiety, as determined by the feline behavioral assessment and research questionnaire (“Fe-BARQ”).
Each group is broken into five groups of four animals. The first group receives Clomicalm® as the sole active agent; the second group receives a composition comprising HMW HA as the sole active agent; the third group receives a composition comprising CBD as the sole active agent; the fourth group receives a composition comprising HMW HA and CBD Complex as the active agents; and the fifth group receives a composition comprising HMW HA, CBD Complex, valerian root, and scutillaria as the active agents.
Each composition is administered for a period of sixty (60) days, once a day (“SID”). Owners complete the species-appropriate C-BARQ or Fe-BARQ on days 0 and 60 of treatment. The results from the overall questionnaire are averaged and characterized as no improvement (score of 0), mild improvement (score of 1), moderate improvement (score of 2), or marked improvement (score of 3).

Molecule	Final Score [1]	Initial Score [1]	Reduction in Temperature (° F.) [2]	Initial Score [3]	Final Score [3]	Final Score [4]	Initial Score [4]	Final Score [5]	Initial Score [5]	Reduction in Temperature (° F.) [6]	Reduction in Temperature (° F.) [7]	Improvement Score [8]
C=C(C)[C@@H]1CCC(C)=C[C@H]1c1c(O)cc(CCCCC)cc1O [CBD Alone, 2-[(1R,6R)-3-methyl-6-prop-1-en-2-ylcyclohex-2-en-1-yl]-5-pentylbenzene-1,3-diol]	2	0	2.0 ° F.	9	4	2	0	2	0	1.7 ° F.	2.0 ° F.	2
hyaluronic acid [HMW HA Alone]	3	0	2.3 ° F.	9	5	3	0	3	0	1.9 ° F.	2.3 ° F.	1
